# Reference: PubChem BioAssay (NCI)
#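 A five-concentration, 48-hour dose response in 96-well plates underlies each endpoint, interpolated linearly between surrounding concentrations. GI50 is the concentration that inhibits growth by half. TGI is the concentration that stops growth completely.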
# How the values were obtained:
# Test in all cases: growth of human tumour cells (NCI), 48 h
# MDA-N = system: MDA-N
# MDA-MB-231 breast = system: MDA-MB-231 breast
# EKVX NSCLC = system: EKVX NSCLC
# HS 578T breast = system: HS 578T breast
# SK-MEL-2 melanoma = system: SK-MEL-2 melanoma
# A549 NSCLC = system: A549 NSCLC
# SR leukemia = system: SR leukemia
# HT29 colon = system: HT29 colon
# RPMI-8226 leukemia = system: RPMI-8226 leukemia
# SNB-78 CNS = system: SNB-78 CNS
Compound,TGI (MDA-N),TGI (MDA-MB-231 breast),TGI (EKVX NSCLC),TGI (HS 578T breast),TGI (SK-MEL-2 melanoma) [µM],TGI (A549 NSCLC),TGI (SR leukemia),TGI (HT29 colon),TGI (RPMI-8226 leukemia),GI50 (MDA-N) [µg/mL],GI50 (MDA-MB-231 breast) [µg/mL],GI50 (EKVX NSCLC) [µg/mL],GI50 (HS 578T breast) [µg/mL],GI50 (A549 NSCLC) [µg/mL],GI50 (SR leukemia),GI50 (HT29 colon),GI50 (RPMI-8226 leukemia) [µg/mL],GI50 (SNB-78 CNS) [µM],TGI (SNB-78 CNS) [µM],GI50 (SK-MEL-2 melanoma) [µM]
COc1c2c(cc3c1C(O)N1CC[C@]34[C@H]3O[C@H]3[C@H](OC)C[C@@H]14)OCO2 (stereo partly specified),67.8 µM,> 100 µM,> 100 µM,> 100 µM,83.8,> 100 µM,88.6 µM,> 100 µM,> 100 µM,,,,,,,,,,,
OCCOCn1cc(Cn2ncc3c(SCc4ccccc4)ncnc32)nn1,37 µM,> 100 µM,> 100 µM,> 100 µM,> 100,> 100 µM,,> 100 µM,,,,,,,,,,,,
O=C(CCN1CC2CCC(CC2)C1)c1cccs1,34.7 µM,34.4 µM,42.6 µM,71.9 µM,33.6,> 57.6 µM,24.6 µM,61.6 µM,12.4 µM,,,,,,,,,,,
CC1(C)CC(=O)C2=C(C1)NC(SSC1=C(C#N)C(c3ccc(F)cc3)C3=C(CC(C)(C)CC3=O)N1)=C(C#N)C2c1ccc(F)cc1 (stereo unspecified),48.4 µg/mL,51.7 µg/mL,78.5 µg/mL,> 150 µg/mL,,15 µg/mL,> 150 µg/mL,47.2 µg/mL,118 µg/mL,27.2,29,35.5,76.9,15,48.9 µg/mL,25.1 µg/mL,50.5,,,
O=C(O)C(CSC(c1ccccc1)(c1ccccc1)c1ccccc1)N=Cc1cccs1 (stereo unspecified),1.94 µM,7.01 µM,> 100 µM,> 34.2 µM,27.4,> 100 µM,> 100 µM,18.6 µM,> 100 µM,,,,,,,,,,,
NNC(=O)c1ccccc1Nc1ccccc1C(=O)NN,> 100 µM,> 100 µM,> 100 µM,> 100 µM,> 100,> 100 µM,,> 100 µM,> 100 µM,,,,,,,,,,,
NCCNc1nc(N2CCCC2)c2nc(Cl)c(NCc3ccccc3)nc2n1,3.1 µM,2.87 µM,4.36 µM,12.8 µM,3.37,3.36 µM,2.95 µM,5.46 µM,3.84 µM,,,,,,,,,,,
CCC(C)C1NC(=O)C2CCCN2C(=O)C(CC2CO2)OC(=O)CCNC(=O)C(C)N(C)C(=O)C(C(C)C)N(C)C1=O (stereo unspecified),,> 100 µM,> 100 µM,> 100 µM,0.0341,> 33.6 µM,,> 100 µM,,,,,,,,,,,,
O=S(=O)(/N=C(\NO)Nc1ccc(Cl)cc1)c1ccc(S(=O)(=O)c2ccccc2)s1,,86.2 µM,51.5 µM,96.9 µM,37.4,> 100 µM,,57.7 µM,35.8 µM,,,,,,,,,,,
CS(=O)(=O)c1nc(-c2cc3c(c(S(C)(=O)=O)n2)CCCC3)cc2c1CCCC2,> 100 µM,> 100 µM,> 100 µM,> 33 µM,> 100,> 100 µM,> 100 µM,> 100 µM,> 100 µM,,,,,,,,,,,
O=S(=O)(O)c1cccc2c(N=Nc3c(O)ccc4ccccc34)cccc12,> 100 µM,> 100 µM,> 100 µM,> 100 µM,> 100,> 100 µM,> 100 µM,> 100 µM,> 100 µM,,,,,,,,,,,
C/C(=N\NC(=O)c1cccnc1)c1cccc(/C(C)=N/NC(=O)c2cccnc2)n1,,,> 100 µM,,7.02,34.7 µM,> 100 µM,> 100 µM,,,,,,,4.56 µM,2.63 µM,,7.53,97.9,2.33
CC(=O)N(C)c1ccc2c(ccc[n+]2[O-])c1[N+](=O)[O-],,,> 100 µM,,> 100,> 100 µM,,> 100 µM,> 100 µM,,,,,,,,,,> 100,
Nc1ccccc1N/C(=C\C(=O)C(Cl)(Cl)Cl)c1ccccc1,39 µM,36.2 µM,63.1 µM,> 100 µM,28.6,> 100 µM,> 100 µM,> 100 µM,86 µM,,,,,,,,,,,
C[C@]12CC[C@@H]3c4ccccc4CC[C@H]3[C@@H]1CC[C@@H]2O,,,> 100 µM,,,> 100 µM,> 100 µM,,> 100 µM,,,,,,,,,,> 100,
CC(Sc1ccccc1)C(CO)(CO)[N+](=O)[O-] (stereo unspecified),,,34.1 µM,,54,34.1 µM,5.72 µM,32.9 µM,49.2 µM,,,,,,,,,,66.7,
C[C@]12CCC(=O)C=C1CC[C@@H]1[C@@H]2[C@@H](O)C[C@@]2(C)[C@H]1CC[C@]2(O)C(=O)CO,> 100 µM,> 100 µM,> 100 µM,> 100 µM,> 100,> 100 µM,> 100 µM,> 100 µM,> 100 µM,,,,,,,,,,,
Clc1ccc(Nc2nc(Cl)c3[nH]cnc3n2)cc1Cl,> 100 µM,51.9 µM,49.1 µM,56.3 µM,59.5,> 100 µM,55.7 µM,43.9 µM,83 µM,,,,,,,,,,,
COC(=O)C1C(C)N1C (stereo unspecified),,,> 100 µM,,,> 100 µM,,> 100 µM,> 100 µM,,,,,,,,,,> 100,
CN1C2CCC1C(C(O)c1ccccc1[N+](=O)[O-])C(=O)C2 (stereo unspecified),75.7 µM,> 100 µM,> 100 µM,> 100 µM,> 100,> 100 µM,,> 100 µM,> 100 µM,,,,,,,,,,,
